Read-outs that look alike come from different tables or passages of the source.
Columns and labels:
[1] = system: aCD3/aCD28-stimulated human PBMCs; assay: Cytokine production in aCD3/aCD28 stimulated human PBMCs; type: cell-based; conditions: PBMC, 18 h
Outline: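 Compound effects measured in buffy-coat PBMCs activated 18 h at 37° C by 1 μg/mL each of soluble anti-CD3 (OKT3) and anti-CD28 (28.2), 1e6 cells/mL. Cytokines in harvested supernatants read by MSD or HTRF.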

[2] = system: aCD3/aCD28-stimulated human CD4+-T-cells; assay: IL-2 production and activation markers in aCD3/aCD28 stimulated isolated human CD4+-T-cells; type: cell-based; conditions: IL-2 production at 3 μM compound
Outline: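 CD4+ T cells isolated from buffy-coat PBMCs by microbeads were plated in Xvivo medium (1.5*10^5 cells/well) and stimulated with anti-CD3/28 mAbs plus compound. IL-2 measured by ELISA in supernatants at 24 h or 48 h; CD25 and proliferation by flow cytometry, CD69 at 24 h. Activity classes based on IL-2 at 3 μM compound.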

[3] = enhancement of IFN-γ production, read-out: Activity Class IFN-γ
[4] = enhancement of IL-2 production, read-out: Activity Class IL-2

SMILES | EC50 [1, 3] [µM] | EC50 [1, 4] [µM] | Activity Class CD4+ [2]
CC(C)(C)NC(=O)c1cc2c(cc1F)S(=O)(=O)C[C@H](N)C(=O)N2Cc1ccc(Cl)cc1.Cl [Example 96, (3R)-3-amino-N-tert-butyl-5-[(4-chlorophenyl)methyl]-8-fluoro-1,1,4-trioxo-2,3,4,5-tetrahydro-1λ^6,5-benzothiazepine-7-carboxamide hydrochloride] | < 1.58 | < 1.58 | A (IL-2 production at 3 μM compound concentration >10 ng/mL)
Cl.N[C@H]1CSc2cc(F)c(C(=O)NCc3ccc(F)cc3)cc2N(Cc2nnc(C3CC3)s2)C1=O [Example 113, (3R)-3-amino-5-[(5-cyclopropyl-1,3,4-thiadiazol-2-yl)methyl]-8-fluoro-N-[(4-fluorophenyl)methyl]-4-oxo-2,3,4,5-tetrahydro-1,5-benzothiazepine-7-carboxamide hydrochloride] | 1.58 to 5.01 | > 5.01 | C (IL-2 production at 3 μM compound concentration between 2-fold increase as compared to mean IL-2 production of stimulated cells in the absence of compounds and <2 ng/mL)
Cl.N[C@H]1CS(=O)(=O)c2cc(F)c(C(=O)NC3CC(F)(F)C3)cc2N(Cc2ccc(Cl)cc2)C1=O [Example 102, (3R)-3-amino-5-[(4-chlorophenyl)methyl]-N-(3,3-difluorocyclobutyl)-8-fluoro-1,1,4-trioxo-2,3,4,5-tetrahydro-1λ^6,5-benzothiazepine-7-carboxamide hydrochloride] | < 1.58 | < 1.58 | A (IL-2 production at 3 μM compound concentration >10 ng/mL)
CCCCNC(=O)c1ccc2c(c1)N(Cc1ccc(OC(F)(F)F)cc1)C(=O)[C@@H](N)CS2.Cl [Example 3, (3R)-3-amino-N-butyl-4-oxo-5-{[4-(trifluoromethoxy)phenyl]methyl}-2,3,4,5-tetrahydro-1,5-benzothiazepine-7-carboxamide hydrochloride] | 1.58 to 5.01 | 1.58 to 5.01 | B (IL-2 production at 3 μM compound concentration between 2-10 ng/mL)
Cl.N[C@H]1CSc2ccc(C(=O)NCCCC(F)(F)F)cc2N(Cc2ccc(Cl)cc2)C1=O [Example 22, (3R)-3-amino-5-[(4-chlorophenyl)methyl]-4-oxo-N-(4,4,4-trifluorobutyl)-2,3,4,5-tetrahydro-1,5-benzothiazepine-7-carboxamide hydrochloride] | 1.58 to 5.01 | 1.58 to 5.01 | B (IL-2 production at 3 μM compound concentration between 2-10 ng/mL)
CC(C)C(C)NC(=O)c1ccc2c(c1)N(Cc1ccc(Cl)cc1)C(=O)[C@@H](N)CS2.Cl (stereo partly drawn) [Example 63, (3R)-3-amino-5-[(4-chlorophenyl)methyl]-N-(3-methylbutan-2-yl)-4-oxo-2,3,4,5-tetrahydro-1,5-benzothiazepine-7-carboxamide hydrochloride] | 1.58 to 5.01 | 1.58 to 5.01 | B (IL-2 production at 3 μM compound concentration between 2-10 ng/mL)
Cl.N[C@H]1CSc2ccc(C(=O)NCc3ccc(F)cc3)cc2N(Cc2ccc(C(F)(F)F)nc2)C1=O [Example 37, (3R)-3-amino-N-[(4-fluorophenyl)methyl]-4-oxo-5-{[6-(trifluoromethyl)pyridin-3-yl]methyl}-2,3,4,5-tetrahydro-1,5-benzothiazepine-7-carboxamide hydrochloride] | > 5.01 | 1.58 to 5.01 | C (IL-2 production at 3 μM compound concentration between 2-fold increase as compared to mean IL-2 production of stimulated cells in the absence of compounds and <2 ng/mL)
CC(C)CNNC(=O)c1ccc2c(c1)N(Cc1ccc(Cl)cc1)C(=O)[C@@H](N)CS2.Cl [Example 65, (3R)-3-amino-5-[(4-chlorophenyl)methyl]-N′-(2-methylpropyl)-4-oxo-2,3,4,5-tetrahydro-1,5-benzothiazepine-7-carbohydrazide hydrochloride] | 1.58 to 5.01 | 1.58 to 5.01 | C (IL-2 production at 3 μM compound concentration between 2-fold increase as compared to mean IL-2 production of stimulated cells in the absence of compounds and <2 ng/mL)
Cl.N[C@H]1CS(=O)(=O)c2cc(F)c(C(=O)NCc3ccccc3)cc2N(Cc2ccc(Cl)cc2)C1=O [Example 103, (3R)-3-amino-N-benzyl-5-[(4-chlorophenyl)methyl]-8-fluoro-1,1,4-trioxo-2,3,4,5-tetrahydro-1λ^6,5-benzothiazepine-7-carboxamide hydrochloride] | < 1.58 | < 1.58 | A (IL-2 production at 3 μM compound concentration >10 ng/mL)
Cl.N[C@H]1CS(=O)(=O)c2cc(F)c(C(=O)NCC3CC3)cc2N(Cc2ccc(Cl)cc2)C1=O [Example 110, (3R)-3-amino-5-[(4-chlorophenyl)methyl]-N-(cyclopropylmethyl)-8-fluoro-1,1,4-trioxo-2,3,4,5-tetrahydro-1λ^6,5-benzothiazepine-7-carboxamide hydrochloride] | < 1.58 | < 1.58 | A (IL-2 production at 3 μM compound concentration >10 ng/mL)
Cl.N[C@H]1CS(=O)(=O)c2cc(F)c(C(=O)NCCC(F)(F)F)cc2N(Cc2ccc(Cl)cc2)C1=O [Example 93, (3R)-3-amino-5-[(4-chlorophenyl)methyl]-8-fluoro-1,1,4-trioxo-N-(3,3,3-trifluoro-propyl)-2,3,4,5-tetrahydro-1λ^6,5-benzothiazepine-7-carboxamide hydrochloride] | 1.58 to 5.01 | < 1.58 | A (IL-2 production at 3 μM compound concentration >10 ng/mL)
Cl.N[C@H]1CSc2cc(F)c(C(=O)NCc3ccc(F)cc3)cc2N(Cc2ccc(Cl)cc2)C1=O [Example 39, (3R)-3-amino-5-[(4-chlorophenyl)methyl]-8-fluoro-N-[(4-fluorophenyl)methyl]-4-oxo-2,3,4,5-tetrahydro-1,5-benzothiazepine-7-carboxamide hydrochloride] | < 1.58 | 1.58 to 5.01 | B (IL-2 production at 3 μM compound concentration between 2-10 ng/mL)
CCCCNC(=O)c1cc2c(cc1F)SC[C@H](N)C(=O)N2Cc1ccc(Cl)cc1.Cl [Example 41, (3R)-3-amino-N-butyl-5-[(4-chlorophenyl)methyl]-8-fluoro-4-oxo-2,3,4,5-tetrahydro-1,5-benzothiazepine-7-carboxamide hydrochloride] | < 1.58 | 1.58 to 5.01 | C (IL-2 production at 3 μM compound concentration between 2-fold increase as compared to mean IL-2 production of stimulated cells in the absence of compounds and <2 ng/mL)
Cl.N[C@H]1CSc2ccc(C(=O)NCCCC(F)(F)F)cc2N(Cc2ccc(C(F)(F)F)nc2)C1=O [Example 36, (3R)-3-amino-4-oxo-N-(4,4,4-trifluorobutyl)-5-{[6-(trifluoromethyl)pyridin-3-yl]methyl}-2,3,4,5-tetrahydro-1,5-benzothiazepine-7-carboxamide hydrochloride] | < 1.58 | > 5.01 | C (IL-2 production at 3 μM compound concentration between 2-fold increase as compared to mean IL-2 production of stimulated cells in the absence of compounds and <2 ng/mL)
CC(C)(C)C(=O)NCCCNC(=O)c1ccc2c(c1)N(Cc1ccc(OC(F)(F)F)cc1)C(=O)[C@@H](N)CS2.Cl [Example 12, N-(3-{[(3R)-3-amino-4-oxo-5-{[4-(trifluoromethoxy)phenyl]methyl}-2,3,4,5-tetrahydro-1,5-benzothiazepin-7-yl]formamido}propyl)-2,2-dimethylpropanamide hydrochloride] | > 5.01 | > 5.01 | C (IL-2 production at 3 μM compound concentration between 2-fold increase as compared to mean IL-2 production of stimulated cells in the absence of compounds and <2 ng/mL)
C[C@H](NC(=O)c1cc2c(cc1F)S(=O)(=O)C[C@H](N)C(=O)N2Cc1ccc(Cl)cc1)C(F)(F)F.Cl [Example 94, (3R)-3-amino-5-[(4-chlorophenyl)methyl]-8-fluoro-1,1,4-trioxo-N-[(2S)-1,1,1-trifluoropropan-2-yl]-2,3,4,5-tetrahydro-1λ^6,5-benzothiazepine-7-carboxamide hydrochloride] | 1.58 to 5.01 | > 5.01 | C (IL-2 production at 3 μM compound concentration between 2-fold increase as compared to mean IL-2 production of stimulated cells in the absence of compounds and <2 ng/mL)
Cl.N[C@H]1CSc2ccc(C(=O)NCc3ccccc3)cc2N(Cc2ccc(OC(F)(F)F)cc2)C1=O [Example 6, (3R)-3-amino-N-benzyl-4-oxo-5-{[4-(trifluoromethoxy)phenyl]methyl}-2,3,4,5-tetrahydro-1,5-benzothiazepine-7-carboxamide hydrochloride] | < 1.58 | 1.58 to 5.01 | B (IL-2 production at 3 μM compound concentration between 2-10 ng/mL)
C[C@H]1Sc2ccc(C(=O)NCCCC(F)(F)F)cc2N(Cc2ccc(Cl)cc2)C(=O)[C@H]1N.Cl [Example 51, (2R,3R)-3-amino-5-[(4-chlorophenyl)methyl]-2-methyl-4-oxo-N-(4,4,4-trifluorobutyl)-2,3,4,5-tetrahydro-1,5-benzothiazepine-7-carboxamide hydrochloride] | < 1.58 | 1.58 to 5.01 | C (IL-2 production at 3 μM compound concentration between 2-fold increase as compared to mean IL-2 production of stimulated cells in the absence of compounds and <2 ng/mL)
